Results reported in patent US20260183434A1, “NEW SENESCENCE TRACER GENERATION” (Eberhard Karls Universitaet Tuebingen Medizinische Fakultaet, priority 2023, published 2026).
“And” between values parts separate entries of the source, which are not always exact repeats. Equal entries are not always repeated.

Columns and labels:
CT26.CL25 (LacZ+) = experiment: In vitro tracer uptake (gamma counter) in β-galactosidase (LacZ) overexpressing cells; assay type: cell-based; settings: β-galactosidase (LacZ) overexpression model; 1×10^6 cells, 0.74 MBq tracer, 40 min, 37° C.
Method: (§1) Cells were cultured in a humidified incubator (Binder, Tuttlingen, Germany) at 37° C. and 5% CO2. Fetal bovine serum (FBS, Sigma of Merck) was heat-inactivated for 30 min at 57° C. for cell culture supplementation. For in vitro uptake experiments, the cells were rinsed with DPBS, harvested with a cell scraper and finally centrifuged. The cell pellet was then washed with DPPS and resuspended in DPBS, before being counted. A suspension of 1×10^6 cells in 1 ml DPBS was incubated with 0.74 MBq of tracer at 37° C. and 5% CO2 for 40 min. After the designated incubation time, the suspension was centrifuged. The cell pellet was transferred into a fresh gamma counter tube (Sarstedt), washed twice with 1 ml DPBS and resuspended in 1 ml DPBS. The uptake was measured with a 2480 Wizard^2 automated gamma counter (Perkin Elmer).
(§2) In vitro experiments were performed by uptake quantification in a gamma-counter. In all experiments, 1 million of each of the cell lines were treated with 20 μCi of tracer. After incubation time of 40 minutes, the cells were centrifuged, the supernatant discarded and the cell pellet resuspended in fresh PBS. The samples were then measured in biodistribution tubes in a gamma counter. The tracers were tested first using a β-galactosidase (LacZ) overexpression model of a colon carcinoma cell line (CT26-CL25) and the wild type (CT26) as control (FIG. 2A). Next, the tracers were tested in a senescent cell model: a liver carcinoma cell line (Amp19) treated with ribosomal checkpoint inhibitor (RCI) (FIGS. 2B and 2C).

CT26 = experiment: In vitro tracer uptake (gamma counter) in wild type CT26 control cells; assay type: cell-based; settings: 1×10^6 cells, 0.74 MBq tracer, 40 min, 37° C.
Method: as §1, §2

Amp19 = experiment: In vitro tracer uptake (gamma counter) in Amp19 senescence cell model; assay type: cell-based; settings: 1×10^6 cells, 0.74 MBq tracer, 40 min; for Uptake in % ID per million cells, Amp19 (cntrl): control Amp19 cells; for Uptake in % ID per million cells, Amp19 (sen): senescent Amp19 cells (treated with RCI)
Method: as §1, §2

HCT116 = experiment: In vitro tracer uptake (gamma counter) in HCT116 senescence cell model; assay type: cell-based; settings: 1×10^6 cells, 0.74 MBq tracer, 40 min; for Uptake in % ID per million cells, HCT116 (cntrl): control HCT116 cells; for Uptake in % ID per million cells, HCT116 (sen): senescent HCT116 cells
Method: as §1

Amp19 tumors [1] = experiment: Ex vivo autoradiography of Amp19 tumors after tracer administration; assay type: in vivo, mice; settings: cx-treated (senescent) vs non-senescent control Amp19 tumors, FIG. 5
Method: (§3) Animal procedures were approved by the local authorities (Regierungspraesidium Tuebingen, Tuebingen, Germany) and conducted according to the German Animal Welfare Act. The mice used were between 6 and 7 weeks of age. Tumors were implanted by injecting 0.5×10^6 cells s.c. into the right flank of SCID beige mice. When most tumors reached 100 mm^3 (˜3 weeks post inoculation), the animals were randomized into two groups. The groups received 25 mg/kg/d CX-5461 (AdooQ BioScience, Irvine, CA, USA) or vehicle [50 mM monosodium phosphate (Sigma of Merck KGaA, Darmstadt, Germany), pH 4.5]i.p. for five consecutive days.
For autoradiography, the tumors were embedded in the optimal cutting temperature compound (Tissue-Tek® O.C.T., Sakura, Alphen aan den Rijn, Netherlands) and frozen at −20° C. in the cryotome (Leica, Wetzlar, Germany). Cryosections (20 μm) were then attached to microscope slides (SuperFrost® Plus, R. Langenbrinck, Emmendingen, Germany). The slides were exposed overnight to a phosphor screen (Molecular Dynamics of GE Healthcare). The screen was then scanned by the phosphorimager (Storm 840, Amersham of GE Healthcare). The signal intensities of sections were normalized to each other based on decay corrected animal receiving dose with the open-source software ImageJ (National Institute of Health, Bethesda, MD, USA). […]

Amp19 tumors [2] = experiment: Dynamic PET scans of Amp19 tumor bearing mice; assay type: in vivo
Method: as §3
Anatomical imaging was conducted on a 7 Tesla small animal MRI scanner with a rat whole body coil and Paravision® software (Bruker, Billerica, MA, USA). The animals were then transferred to the PET scanner without moving the animal to ensure co-registration. The animals received 12±1 MBq tracer (determined by a CRC 15-R dose calibrator) was injected through a tail vein catheter, which was subsequently flushed with 50 μl heparinized saline solution. The transmission scan using an external ^57Co point source was performed for the attenuation correction. […]
The list mode raw file was histogrammed and reconstructed with OSEM3D/SP-MAP algorithm implemented in Inveon Acquisition Workplace. […] The tracer uptake was calculated as the percentage of the injected dose per cubic centimeter (% ID/cc). […]

Washout of tumor uptake (dynamic PET) (Amp19 tumors [2]; treated and untreated Amp19 tumors, uptake stable, reaches a maximum and plateaus) | Compound | Uptake in % ID per million cells, CT26.CL25 (LacZ+) (CT26.CL25 (LacZ+)) | Uptake in % ID per million cells, CT26 (CT26) [% ID per million cells] | Uptake in % ID per million cells, Amp19 (cntrl) (Amp19) [% ID per million cells] | Uptake in % ID per million cells, Amp19 (sen) (Amp19) [% ID per million cells] | Uptake in % ID per million cells, HCT116 (cntrl) (HCT116) [% ID per million cells] | Uptake in % ID per million cells, HCT116 (sen) (HCT116) [% ID per million cells] | Autoradiography signal accumulation in tumors (Amp19 tumors [1]) | Dynamic uptake in tumors (PET) (Amp19 tumors [2]; CX-treated (senescent) vs untreated control Amp19 tumors, tracer i.v., FIG. 4)
 | OC[C@H]1O[C@@H](Oc2ccc(NCCC[18F])cc2COc2c(F)c(F)cc(F)c2F)[C@H](O)[C@@H](O)[C@H]1O [[^18F]ADTFPBGal] | 4.515 % ID per million cells | 1.403 | 1.085 | 0.205 | 1.564 | 0.6573 |  | 
 | OC[C@H]1O[C@@H](Oc2cccnc2[18F])[C@H](O)[C@@H](O)[C@H]1O [[^18F]FPyGal, reference compound] | 0.5769 % ID per million cells and 1.117 % ID per million cells |  | 0.2657 | 0.0639 | 0.3438 | 0.1998 |  | 
 | O=[N+]([O-])c1ccc(OCc2cc(NCCC[18F])ccc2O[C@@H]2O[C@H](CO)[C@H](O)[C@H](O)[C@H]2O)cc1 [[^18F]NO2BGal] | 0.9792 % ID per million cells | 1.492 | 1.286 | 0.3245 | 0.5052 | 0.3026 |  | 
 | OC[C@H]1O[C@@H](Oc2ccc(N3CCN(CCC[18F])CC3)cc2)[C@H](O)[C@@H](O)[C@H]1O [[^18F]PIPGal] | 0.06898 % ID per million cells | 0.3131 | 0.3165 | 0.04018 | 0.1219 | 0.09843 | High signal accumulation is observed in the cx-treated (senescent) tumors compared to the non-senescent controls | 
no observable washout effect | OC[C@H]1O[C@@H](Oc2cc([18F])ccc2COc2c(F)c(F)cc(F)c2F)[C@H](O)[C@@H](O)[C@H]1O [[^18F]TFPBGal] | 7.514 % ID per million cells | 2.444 | 3.641 | 0.3992 | 4.745 | 2.761 |  | higher in CX-treated (senescent) tumors compared to untreated controls at all time points
